Like-named read-outs stand apart in the source and are kept apart here.
Assays:
rat orexin 1 receptor = rat orexin 1 receptor (Rattus norvegicus, UniProt P56718); assay: Rat orexin 1 receptor radioligand binding; conditions: read-out: rOX1 Ki
Procedure: (§1) Data are analyzed using pc-Sandy macro and graphed on Graphpad Prism 5. For analysis, each concentration point is averaged from triplicate values and the averaged values are plotted on Graphpad Prism. The IC50 was determined by applying the following equation (GraphPad Prism 5.0, SanDiego) for one site competition where X=log (concentration) and Y=specific binding. Top denotes the total [^3H]-(1-(5-(2-fluoro-phenyl)-2-methyl-thiazol-4-yl)-1-((S)-2-(5-phenyl-(1,3,4)oxadiazol-2-ylmethyl)-pyrrolidin-1-yl)-methanone) binding, bottom denotes the nonspecific [^3H]-(1-(5-(2-fluoro-phenyl)-2-methyl-thiazol-4-yl)-1-((S)-2-(5-phenyl-(1,3,4)oxadiazol-2-ylmethyl)-pyrrolidin-1-yl)-methanone) binding. Graphpad Prism calculates Ki value from IC50 and the pre-determined Kd values for [^3H]-(1-(5-(2-fluoro-phenyl)-2-methyl-thiazol-4-yl)-1-((S)-2-(5-phenyl-(1,3,4)oxadiazol-2-ylmethyl)-pyrrolidin-1-yl)-methanone) and [3H]-EMPA. The Ki for each compound is then uploaded into 3DX. Each run comprises individual compounds in triplicate. The data in Table 1 and Table 2 represent averages from between 2-20 runs
(§2) Rat and Human Orexin 1 Receptor Radioligand Binding Studies
(§3) After centrifugation (2K×G, 5 min at 4° C.), the supernatant was aspirated and the pellets frozen and stored at −80° C. […] Each cell pellet from a 15 cm plate was resuspended in 10 mL, stored on ice, and homogenized for 45 sec prior to addition to the reactions. […] The final concentration of DMSO in the reactions is equal to or less than 0.1%. Total and nonspecific binding was determined in the absence and presence of 10 μM almorexant. The total volume of each reaction is 200 μL (20 μL of diluted compounds, 80 μL of [^3H]-(1-(5-(2-fluoro-phenyl)-2-methyl-thiazol-4-yl)-1-((S)-2-(5-phenyl-(1,3,4)oxadiazol-2-ylmethyl)-pyrrolidin-1-yl)-methanone) diluted in PBS and 100 μL of the cell suspension). […] The plates were washed 3 times by aspirating 30 ml PBS through the plates. Plates were dried in 55° C. oven for 60 min, scintillation fluid was added, and the radioactivity was counted on a Topcount (Packard).

human orexin 1 receptor = human orexin 1 receptor (Homo sapiens, UniProt O43613); assay: Human orexin 1 receptor radioligand binding; conditions: read-out: hOX1 Ki
Procedure: as §1, §2, §3

human orexin 2 receptor = human orexin 2 receptor (Homo sapiens (Human), UniProt O43614); assay: Human orexin 2 receptor radioligand binding; conditions: read-out: hOX2 Ki
Sequence of human orexin 2 receptor (O43614 whole entry): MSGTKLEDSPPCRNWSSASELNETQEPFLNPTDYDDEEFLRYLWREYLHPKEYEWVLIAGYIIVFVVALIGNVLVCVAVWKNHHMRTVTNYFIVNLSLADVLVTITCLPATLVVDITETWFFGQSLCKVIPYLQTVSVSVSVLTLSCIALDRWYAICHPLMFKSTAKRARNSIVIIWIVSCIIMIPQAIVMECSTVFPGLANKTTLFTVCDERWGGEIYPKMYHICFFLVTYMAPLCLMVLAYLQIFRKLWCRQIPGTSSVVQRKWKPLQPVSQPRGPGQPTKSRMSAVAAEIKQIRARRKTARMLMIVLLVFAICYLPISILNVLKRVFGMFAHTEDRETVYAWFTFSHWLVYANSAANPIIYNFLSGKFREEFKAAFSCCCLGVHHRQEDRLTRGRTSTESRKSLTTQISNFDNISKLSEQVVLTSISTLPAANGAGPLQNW
Procedure: as §1
Human Orexin 2 Receptor Radioligand Binding Studies
as §3, with “HEK293 stably expressing human orexin 2 receptor (Genebank accession number NM_001526) were grown to confluency in DMEM (Hyclone, cat # SH30022), 10% FBS, 1× Pen/Strep, 1× NaPyruvate, 10 mM HEPES, 600 ug/ml G418 media on 150 cm^2 tissue culture plates, washed with 5 mM EDTA in PBS (HyClone Dulbecco's Phosphate Buffered Saline 1× with Calcium and Magnesium, Cat # SH30264.01, hereafter referred to simply as PBS) and scraped into 50 ml tubes. After” for “After”, “sec just” for “sec”, “[^3H]-EMPA” for “[^3H]-(1-(5-(2-fluoro-phenyl)-2-methyl-thiazol-4-yl)-1-((S)-2-(5-phenyl-(1,3,4)oxadiazol-2-ylmethyl)-pyrrolidin-1-yl)-methanone)”

[1] = rat orexin 1 receptor, averages of 2-20 runs
[2] = human orexin 1 receptor, averages of 2-20 runs
[3] = human orexin 2 receptor, averages of 2-20 runs

O=C(c1ccc(F)cc1-c1ncccn1)N1CC2CCC1C(Oc1ccc(C(F)(F)F)cn1)C2 (racemic) [Example 250, (R/S)-(4-fluoro-2-(pyrimidin-2-yl)phenyl)(6-((5-(trifluoromethyl)pyridin-2-yl)oxy)-2-azabicyclo[2.2.2]octan-2-yl)methanone]
Ki (rat orexin 1 receptor; [1]): 22 nM
Ki (human orexin 1 receptor; [2]): 24 nM

O=C(c1ccccc1-c1ncc(F)cn1)N1CC2CCC1C(Oc1ccc(C(F)(F)F)cn1)C2 (racemic) [Example 251, (R/S)-(2-(5-fluoropyrimidin-2-yl)phenyl)(6-((5-(trifluoromethyl)pyridin-2-yl)oxy)-2-azabicyclo[2.2.2]octan-2-yl)methanone]
Ki (rat orexin 1 receptor; [1]): 18 nM
Ki (human orexin 1 receptor; [2]): 11 nM

Cc1cccc(C(=O)N2C[C@H]3C[C@@H](Oc4ccc(C(F)(F)F)cn4)[C@@H]2C3)c1-c1ncco1 [Example 32, (3-methyl-2-(oxazol-2-yl)phenyl)((1S,4R,6R)-6-((5-(trifluoromethyl)pyridin-2-yl)oxy)-2-azabicyclo[2.2.1]heptan-2-yl)methanone]
Ki (human orexin 1 receptor; [2]): 6 nM

Cc1ccc(C(=O)N2C[C@H]3C[C@@H](Oc4ccc(C(F)(F)F)cn4)[C@@H]2C3)c(-n2ccnn2)n1 [Example 34, (6-methyl-2-(1H-1,2,3-triazol-1-yl)pyridin-3-yl)((1S,4R,6R)-6-((5-(trifluoromethyl)pyridin-2-yl)oxy)-2-azabicyclo[2.2.1]heptan-2-yl)methanone]
Ki (rat orexin 1 receptor; [1]): 162 nM
Ki (human orexin 1 receptor; [2]): 368 nM

O=C(c1ccccc1-n1nccn1)N1C[C@H]2C[C@@H](Oc3ccc(C(F)(F)F)cn3)[C@@H]1C2 [Example 36, (2-(2H-1,2,3-triazol-2-yl)phenyl)((1S,4R,6R)-6-((5-(trifluoromethyl)pyridin-2-yl)oxy)-2-azabicyclo[2.2.1]heptan-2-yl)methanone]
Ki (human orexin 1 receptor; [2]): 13 nM

O=C(c1ccc(F)cc1-n1nccn1)N1C[C@H]2C[C@@H](Oc3ccc(C(F)(F)F)cn3)[C@@H]1C2 [Example 44, (4-fluoro-2-(2H-1,2,3-triazol-2-yl)phenyl)((1S,4R,6R)-6-((5-(trifluoromethyl)pyridin-2-yl)oxy)-2-azabicyclo[2.2.1]heptan-2-yl)methanone]
Ki (human orexin 2 receptor; [3]): 2330 nM
Ki (human orexin 1 receptor; [2]): 39 nM

O=C(c1c(F)cccc1-c1ncccn1)N1C[C@H]2C[C@@H](Oc3ccc(Br)cn3)[C@@H]1C2 [Example 47, ((1S,4R,6R)-6-((5-bromopyridin-2-yl)oxy)-2-azabicyclo[2.2.1]heptan-2-yl)(2-fluoro-6-(pyrimidin-2-yl)phenyl)methanone]
Ki (rat orexin 1 receptor; [1]): 6 nM
Ki (human orexin 1 receptor; [2]): 9 nM

O=C(c1ccccc1-n1nccn1)N1C[C@H]2C[C@@H](Nc3ccc(C(F)(F)F)cn3)[C@@H]1C2 [Example 53, (2-(2H-1,2,3-triazol-2-yl)phenyl)((1S,4S,6R)-6-((5-(trifluoromethyl)pyridin-2-yl)amino)-2-azabicyclo[2.2.1]heptan-2-yl)methanone]
Ki (human orexin 1 receptor; [2]): 4 nM

Cc1ccc(-n2nccn2)c(C(=O)N2C[C@H]3C[C@@H](Nc4ccc(C(F)(F)F)cn4)[C@@H]2C3)n1 [Example 54, (6-methyl-3-(2H-1,2,3-triazol-2-yl)pyridin-2-yl)((1S,4S,6R)-6-((5-(trifluoromethyl)pyridin-2-yl)amino)-2-azabicyclo[2.2.1]heptan-2-yl)methanone]
Ki (rat orexin 1 receptor): 6 nM
Ki (human orexin 1 receptor): 5 nM

CN(c1ccc(C(F)(F)F)cn1)[C@@H]1C[C@H]2C[C@@H]1N(C(=O)c1cccc(F)c1-c1ncccn1)C2 [Example 157, (3-fluoro-2-(pyrimidin-2-yl)phenyl)((1S,4S,6R)-6-(methyl(5-(trifluoromethyl)pyridin-2-yl)amino)-2-azabicyclo[2.2.1]heptan-2-yl)methanone]
Ki (rat orexin 1 receptor; [1]): 6 nM
Ki (human orexin 2 receptor; [3]): 351 nM

CC(=O)N(c1ccc(C(F)(F)F)cn1)[C@@H]1C[C@H]2C[C@@H]1N(C(=O)c1cccc(F)c1-c1ncccn1)C2 [Example 162, N-((1S,4R,6R)-2-(3-fluoro-2-(pyrimidin-2-yl)benzoyl)-2-azabicyclo[2.2.1]heptan-6-yl)-N-(5-(trifluoromethyl)pyridin-2-yl)acetamide]
Ki (rat orexin 1 receptor; [1]): > 10000 nM
Ki (human orexin 2 receptor; [3]): > 10000 nM

O=C(c1cc(F)ccc1-c1ncccn1)N1C[C@H]2C[C@@H](Nc3ccc(Cl)cn3)[C@@H]1C2 [Example 172, ((1S,4S,6R)-6-((5-chloropyridin-2-yl)amino)-2-azabicyclo[2.2.1]heptan-2-yl)(5-fluoro-2-(pyrimidin-2-yl)phenyl)methanone]
Ki (rat orexin 1 receptor; [1]): 8 nM
Ki (human orexin 1 receptor; [2]): 7 nM

COC(=O)c1cnc(N[C@@H]2C[C@H]3C[C@@H]2N(C(=O)c2ccccc2-n2nccn2)C3)cn1 [Example 221, methyl 5-(((1S,4S,6R)-2-(2-(2H-1,2,3-triazol-2-yl)benzoyl)-2-azabicyclo[2.2.1]heptan-6-yl)amino)pyrazine-2-carboxylate]
Ki (rat orexin 1 receptor; [1]): 2100 nM
Ki (human orexin 2 receptor; [3]): 3000 nM

O=C(c1cccnc1-n1nccn1)N1C[C@H]2C[C@@H](Nc3ncc(C(F)(F)F)cn3)[C@@H]1C2 [Example 222, (2-(2H-1,2,3-triazol-2-yl)pyridin-3-yl)((1S,4S,6R)-6-((5-(trifluoromethyl)pyrimidin-2-yl)amino)-2-azabicyclo[2.2.1]heptan-2-yl)methanone]
Ki (rat orexin 1 receptor; [1]): 261 nM
Ki (human orexin 2 receptor; [3]): > 10000 nM

CCOc1ccc(C)nc1C(=O)N1C[C@H]2C[C@@H](Nc3ncc(C(F)(F)F)cn3)[C@@H]1C2 [Example 233, (3-ethoxy-6-methylpyridin-2-yl)((1S,4S,6R)-6-((5-(trifluoromethyl)pyrimidin-2-yl)amino)-2-azabicyclo[2.2.1]heptan-2-yl)methanone]
Ki (rat orexin 1 receptor; [1]): 280 nM
Ki (human orexin 2 receptor; [3]): 1100 nM

O=C(c1ccc(F)cc1-c1ncccn1)N1C[C@@H]2CC[C@H]1[C@H](Oc1ccc(C(F)(F)F)cn1)C2 [Example 259, (4-fluoro-2-(pyrimidin-2-yl)phenyl)((1S,4R,6R)-6-((5-(trifluoromethyl)pyridin-2-yl)oxy)-2-azabicyclo[2.2.2]octan-2-yl)methanone]
Ki (rat orexin 1 receptor; [1]): 16 nM
Ki (human orexin 1 receptor; [2]): 19 nM

O=C(c1ccccc1-c1ncc(F)cn1)N1C[C@@H]2CC[C@H]1[C@H](Oc1ccc(C(F)(F)F)cn1)C2 [Example 262, (2-(5-fluoropyrimidin-2-yl)phenyl)((1S,4R,6R)-6-((5-(trifluoromethyl)pyridin-2-yl)oxy)-2-azabicyclo[2.2.2]octan-2-yl)methanone]
Ki (rat orexin 1 receptor; [1]): 10 nM
Ki (human orexin 1 receptor; [2]): 10 nM

O=C(c1ccccc1-n1nccn1)N1C[C@@H]2CC[C@H]1[C@H](Nc1cnc(C(F)(F)F)cn1)C2 [Example 275, (2-(2H-1,2,3-triazol-2-yl)phenyl)((1S,4R,6R)-6-((5-(trifluoromethyl)pyrazin-2-yl)amino)-2-azabicyclo[2.2.2]octan-2-yl)methanone]
Ki (rat orexin 1 receptor): 8 nM
Ki (human orexin 2 receptor): 175 nM

O=C(c1cccc(F)c1-c1ncccn1)N1C[C@H]2CC[C@@H]1[C@@H](Nc1cnc(C(F)(F)F)cn1)C2 [Example 276, (3-fluoro-2-(pyrimidin-2-yl)phenyl)((1R,4S,6S)-6-((5-(trifluoromethyl)pyrazin-2-yl)amino)-2-azabicyclo[2.2.2]octan-2-yl)methanone]
Ki (rat orexin 1 receptor; [1]): 2700 nM
Ki (human orexin 2 receptor; [3]): > 10000 nM

Cc1ccc(-n2nccn2)c(C(=O)N2C[C@H]3C[C@@H](Oc4ccc5cccnc5n4)[C@@H]2C3)n1 [Example 286, ((1S,4R,6R)-6-((1,8-naphthyridin-2-yl)oxy)-2-azabicyclo[2.2.1]heptan-2-yl)(6-methyl-3-(2H-1,2,3-triazol-2-yl)pyridin-2-yl)methanone]
Ki (rat orexin 1 receptor; [1]): 822 nM
Ki (human orexin 2 receptor; [3]): 3100 nM

— patent publication US9611277B2 (Janssen Pharmaceutica NV, priority 2013, dated 2017)
